In patent US20200383969A1, “RIMEGEPANT FOR CGRP RELATED DISORDERS” (Biohaven Pharmaceutical Holding Company Ltd., priority 2018, published 2020):

How the values were obtained:
Assay type in all cases: in vivo, human
[1] = Study 301 (BHV3000-301), Phase 3, rimegepant 75 mg tablet vs placebo, acute treatment of migraine
From the text: Clinical Trial—BHV3000-301: Phase 3: Double-Blind, Randomized, Placebo-Controlled, Safety and Efficacy Trial of BHV-3000 (Rimegepant) for the Acute Treatment of Migraine (ClinicalTrials.gov Identifier: NCT03235479). • Study Type: Interventional (Clinical Trial) • Actual Enrollment: 1490 participants • Allocation: Randomized • Intervention Model: Parallel Assignment • Intervention Model Description: Double-blind to Sponsor, Investigator and Subject Randomized Controlled Trial • Masking: Triple (Participant, Care Provider, Investigator) • Masking Description: Double-blind to Sponsor, Investigator and Subject • Primary Purpose: Treatment • Official Title: BHV3000-301: Phase 3: Double-Blind, Randomized, Placebo-Controlled, Safety and Efficacy Trial of BHV-3000 (Rimegepant) for the Acute Treatment of Migraine • 1. Pain freedom of rimegepant (75 mg tablet) compared with placebo in the acute treatment of migraine will be measured using the number of evaluable subjects that report no pain at 2 hours post-dose. [Time Frame: Two hours post dose] • Pain will be measured on a 4 point Likert scale (0=none, 1=mild, 2=moderate, 3=severe) • 2. Freedom from the most bothersome symptom (MBS) of rimegepant (75 mg tablet) compared with placebo will be measured using the number of evaluable subjects that report the absence of their MBS at 2 hours post-dose. [Time Frame: Two hours post dose] • The MBS (nausea, phonophobia or photophobia) will measured using a binary scale (0=absent, 1=present). • 1. […] [Time Frame: 2 hours-24 hours post-dose] • Sustained Pain Freedom as measured by a 4 point numeric rating scale (None, Mild, Moderate, Severe) • 2. The difference between rimegepant (75 mg tablet) compared to placebo by tabulating the absence of photophobia at 2 hours post-dose in the subset of subjects that reported the presence of photophobia at headache baseline. [Time Frame: 2 hours post-dose] • Photophobia • 3. To evaluate rimegepant (75 mg tablet) compared to placebo by tabulating the number of subjects that report the absence of phonophobia at 2 hours post-dose in the subset of subjects that reported the presence of phonophobia at headache baseline. [Time Frame: 2 hours post-dose] • Phonophobia • 4. To measure the difference between rimegepant (75 mg tablet) compared to placebo on Pain Relief, at 2 hours post-dose, for those that report a pain level of moderate or severe at baseline and then report a pain level of none or mild. [Time Frame: 2 hours post-dose] • Pain Relief as measured by a 4 point numeric rating scale (None, Mild, Moderate, Severe) • 5. Freedom from Nausea by tabulating the number of subjects that report the absence of nausea at 2 hours post-dose in the subset of subjects that reported the presence of nausea at headache baseline. [Time Frame: 2 hours post-dose] • Freedom from Nausea • 6. The difference between rimegepant (75 mg tablet) compared to placebo on the probability of requiring rescue medication using the number of subjects that take rescue medication within […] administration of study medication (BHV3000 or placebo). [Time Frame: up to 24 hours post-dose] • Requiring Rescue Medication • 7. […] [Time Frame: 2 hours-24 hours post-dose] • Sustained Pain Freedom • 8. […] [Time Frame: 2 hours-24 hours post-dose] • Sustained Pain Relief as measured by a 4 point numeric rating scale (None, Mild, Moderate, Severe) • 9. […] [Time Frame: 2 hours-48 hours post-dose] • Sustained Pain Relief as measured by a 4 point numeric rating scale (None, Mild, Moderate, Severe) • 10. To measure the difference between rimegepant (75 mg tablet) relative to placebo on the proportion of subjects able to function normally, at 2 hours, using the number of subjects that self-report as “normal” on the functional disability scale. [Time Frame: 2 hours post-dose] • Functional Disability Score • 11. […]

[2] = Pooled liver function test profile, Studies 301 and 302; conditions: pooled Studies 301+302; n = 1089
Method: Results from Clinical Trials—The study results from the clinical studies described in Example 2 and Example 3 are set forth in FIG. 1, FIG. 2 and Table 2, Table 3 and Table 4.
(§1) In a double-blind, randomized, placebo-controlled, multicenter study (Study 301, NCT03235479) adults ≥18 years of age with at least a 1-year history of ICHD 3-beta migraine were eligible to participate. Following a 3- to 28-day screening period, subjects were randomized to receive rimegepant 75 mg or matching placebo and instructed to treat a single migraine attack with 1 dose of the blinded study drug (rimegepant or placebo) when headache pain reached moderate or severe intensity. The coprimary endpoints were pain freedom at 2 hours postdose and freedom from the most bothersome symptom (MBS) at 2 hours postdose. Safety assessments included adverse events (AEs), ECGs, vital signs, physical measurements, and routine laboratory tests, including assessment of liver function. Unless stated otherwise, values presented are mean ±SD.
as §1, with “302, NCT03237845)” for “301, NCT03235479)”

[3] = Pooled adverse event and liver function test data, Studies 301, 302 and 303
[4] = both subjects not dosed before onset
[5] = pooled Studies 301, 302, 303, n = 1,771

In the case of `N[C@@H]1c2cccnc2[C@H](OC(=O)N2CCC(n3c(=O)[nH]c4ncccc43)CC2)CC[C@H]1c1cccc(F)c1F` [Rimegepant, [(5S,6S,9R)-5-amino-6-(2,3-difluorophenyl)-6,7,8,9-tetrahydro-5H-cyclohepta[b]pyridin-9-yl] 4-(2-oxo-3H-imidazo[4,5-b]pyridin-1-yl)piperidine-1-carboxylate], the “SAEs related to the study drug” value [1] is reported as “No SAE”, the “AE dizziness, incidence” value ([1]; 75 mg tablet) is reported as 0.7% and the “AE dizziness, n/N” value ([1]; 75 mg tablet) is reported as 4/546. For the same compound, the “AE nausea, incidence” value ([1]; 75 mg tablet) was 0.9%, the “AE nausea, n/N” value ([1]; 75 mg tablet) was 5/546 and the “Bilirubin elevations >2 times ULN” value ([1]; 75 mg tablet) was “No bilirubin elevations”. The “Serum ALT or AST > ULN, n/N” value ([1]; 75 mg tablet) was 11/546, the “Serum ALT or AST > ULN, subjects” value ([1]; 75 mg tablet) was 2.0% and the “Transaminase level >3 times ULN, number of subjects” value ([1]; 75 mg tablet) was “One”. The “Transaminase level >3 times ULN, subjects” value ([1]; 75 mg tablet) was 0.2%, the “Transaminase level >5 times ULN” value ([1]; 75 mg tablet) was “no subject” and the “Normal function at 2 hours (functional disability) vs placebo” value ([1]; P<0.0001) was “greater proportion”. The “Serious AEs, number of subjects” value [1, 4] was 2, the “Serious AEs, subjects” value [1, 4] was 0.4% and the “Sustained pain relief from 2 through 48 hours postdose vs placebo” value ([1]; single dose, no rescue medication, P=0.0003) was “superiority versus placebo”. For the same compound, the “Sustained pain freedom from 2 through 48 hours postdose vs placebo” value ([1]; single dose, no rescue medication, P=0.013) was “superiority versus placebo”, the “ALT >3 × ULN, subjects” value [2] was 0.1% and the “ALT >ULN, subjects” value [2] was 2.0%. The “AST >3 × ULN, subjects” value [2] was 0.1%, the “AST >ULN, subjects” value [2] was 1.1% and the “Bilirubin elevations > 2 × ULN” value ([3]; across Studies 301, 302 and 303) was “no patients experienced elevations”. The “ALT or AST >5 × ULN, patients” value ([3]; pooled Studies 301, 302, 303, AST elevation, not drug-related per investigator) was “(0.06%)^2”, the “ALT or AST >3 × ULN, patients” value [3, 5] was “(0.1%)” and the “ALT or AST >ULN, patients” value [3, 5] was “(2.7%)”.
